Results published in patent US5368707A, “Convenient determination of trace lead in whole blood and other fluids” (priority 1993, dated 1994).

Key:
Horseradish peroxidase = conditions: Guilbault, et al., 1968; cited from earlier work
isocitrate dehydrogenase [1] = molecular target: T1, isocitrate dehydrogenase (Sus scrofa, UniProt P33198); assay: ICDH inhibition by lead in the presence of CoSO4 (Example 8); assay type: biochemical, pig; conditions: 1 mM CoSO4
T1 construct: purchased Sigma, St. Louis, Mo; ICD Type VI
T1 sequence (P33198 9-421): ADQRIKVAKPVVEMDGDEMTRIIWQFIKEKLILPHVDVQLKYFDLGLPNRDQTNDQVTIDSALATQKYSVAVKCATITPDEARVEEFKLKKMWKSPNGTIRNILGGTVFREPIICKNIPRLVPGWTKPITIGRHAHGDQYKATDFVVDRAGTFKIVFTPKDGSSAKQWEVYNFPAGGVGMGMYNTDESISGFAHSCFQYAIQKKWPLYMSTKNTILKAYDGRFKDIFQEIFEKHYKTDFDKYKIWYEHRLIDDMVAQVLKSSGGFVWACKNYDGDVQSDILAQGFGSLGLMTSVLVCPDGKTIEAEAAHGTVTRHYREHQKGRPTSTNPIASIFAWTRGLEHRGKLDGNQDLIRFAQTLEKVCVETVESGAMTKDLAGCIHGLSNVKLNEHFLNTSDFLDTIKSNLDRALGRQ
Protocol: A major problem in the measurement of lead in blood is the interference by various blood proteins and, as in the majority of clinical samples, the presence of excess amounts of EDTA. The inventors have discovered that lead chelated with EDTA is exchangeable with cobalt(II). As shown in this example, lead Pb(II) is displaced from EDTA by cobalt(II) and detected by its inhibition of isocitrate dehydrogenase (ICDH).
Micromolar concentrations of lead were determined through ICDH inhibition in the presence of 1 mM CoSO4.

isocitrate dehydrogenase [2] = molecular target: T1, isocitrate dehydrogenase; assay: Sensitivity of isocitrate dehydrogenase to lead ion (detection level); assay type: biochemical, pig
Protocol: Pig heart NADP-linked isocitric dehydrogenase (ICD, EC 1.1.1.42), an oxidoreductase, is sensitive to trace levels of lead ion as low as 1 μg/dl. […] In fact, at low concentrations of activator, e.g., <200 ppb Mn^++, the activity of ICD is proportional to Mn^++ and may be used to determine activator concentration (Guilbault, 1970). Inactivation by inhibitors is useful for determining inhibitor concentration. Specificity of enzymes for activators, or inhibitors, is not as great as for the natural substrate of the enzyme, but in some cases inhibitor concentration may be selectively determined. Silver and mercury have been determined in the presence of each other using isocitrate dehydrogenase (Mealor and Townshend, 1968). However, until now, there has been no satisfactory rapid amperometric method to determine lead ion based on ICD inhibition, much less a simple method to determine low lead ion concentrations in whole blood.
The inventors have developed a highly sensitive method for the determination of lead ion in solution. Isocitrate dehydrogenase, under specific conditions, may be employed in an assay to quantitatively determine lead ion in the range 0-30 μg per deciliter of solution. Assay sensitivity can be adjusted to a desired concentration range for lead by altering one or more of several parameters such as the concentration of isocitric dehydrogenase. Lower enzyme concentrations increase sensitivity to lead ion.
(§1) The inventors have shown that less than 1 μg/dL of lead in solution may be measured employing the enzyme isocitrate dehydrogenase. The measurements are sensitive to several factors, including pH, enzyme concentration, co-factor concentration and temperature. The following example illustrates the effect of pH on enzyme inhibition.

isocitrate dehydrogenase [3] = molecular target: T1, isocitrate dehydrogenase; assay: Amperometric ICDH activity with lead-containing whole blood samples; assay type: biochemical, pig
Description: The present invention concerns approaches to and methods for determining lead ion levels in whole blood. […] Isocitrate dehydrogenase for example is inhibited by lead. […] This is likely due to binding of lead by blood proteins such as albumin or other proteins, although it is also possible that the enzyme is stabilized by an unidentified blood component.

isocitrate dehydrogenase [4] = molecular target: T1, isocitrate dehydrogenase; assay: Effect of pH on inhibition of isocitrate dehydrogenase by lead ion (Example 7); assay type: biochemical, pig; conditions: for Current / Inhibition: 1.0 U/mL enzyme, 50 mM Tris
Protocol: as §1
Inhibition of the enzyme isocitrate dehydrogenase was calculated based on the amperometric signal (I) which is the mediator oxidation current measured with a glassy carbon electrode at an applied potential of +100 mV. Inhibition was determined as (Iuninhibited -Iinhibited)/Iuninhibited. 50 mM Tris buffer at various pH values as shown in Table 2 was used with 1.0 U/mL enzyme in the solution.

Structure (SMILES): [Pb+2] [lead ion]
- linear range of peroxidase inhibition (Horseradish peroxidase): 10 to 185 µg/mL
- Inhibition (isocitrate dehydrogenase [1]; 2.4 μM lead): 24%
- Inhibition (isocitrate dehydrogenase [1]; 4.8 μM lead): 46%
- Inhibition (isocitrate dehydrogenase [1]; 12 μM lead): 71%
- reversibility of binding to ICDH (isocitrate dehydrogenase [2]): binds irreversibly to the enzyme
- detectable lead ion level (isocitrate dehydrogenase [2]; ICDH inhibition): ~1 µg/dL
- quantitatively determinable lead range (isocitrate dehydrogenase [2]; isocitrate dehydrogenase assay, in solution): 0-30 μg per deciliter
- inhibition of isocitrate dehydrogenase activity (isocitrate dehydrogenase [3]): do not detectably inhibit isocitrate dehydrogenase activity
- Current (isocitrate dehydrogenase [4]; pH 7.5, 5.5 μg/dL Pb): 749 nA
- Inhibition (isocitrate dehydrogenase [4]; pH 7.5, 5.5 μg/dL Pb): 0%
- Current (isocitrate dehydrogenase [4]; pH 7.5, 11.1 μg/dL Pb): 754 nA
- Inhibition (isocitrate dehydrogenase [4]; pH 7.5, 11.1 μg/dL Pb): 0%
- Current (isocitrate dehydrogenase [4]; pH 7.5, 16.6 μg/dL Pb): 760 nA
- Inhibition (isocitrate dehydrogenase [4]; pH 7.5, 16.6 μg/dL Pb): -1%
- Current (isocitrate dehydrogenase [4]; pH 7.5, 22.1 μg/dL Pb): 750 nA
- Inhibition (isocitrate dehydrogenase [4]; pH 7.5, 22.1 μg/dL Pb): 0%
- Current (isocitrate dehydrogenase [4]; pH 7.5, 27.6 μg/dL Pb): 761 nA
- Inhibition (isocitrate dehydrogenase [4]; pH 7.5, 27.6 μg/dL Pb): -1%
- Inhibition (in words) (isocitrate dehydrogenase [4]; pH 7.5, 27.6 μg/dL lead): no significant inhibition
- Inhibition (in words) (isocitrate dehydrogenase [4]; pH 7.5, up to about 28 mg per deciliter lead (so in the source)): very little if any inhibition
- Current (isocitrate dehydrogenase [4]; pH 8.0, 5.5 μg/dL Pb): 673 nA
- Inhibition (isocitrate dehydrogenase [4]; pH 8.0, 5.5 μg/dL Pb): 6%
- Current (isocitrate dehydrogenase [4]; pH 8.0, 11.1 μg/dL Pb): 613 nA
- Inhibition (isocitrate dehydrogenase [4]; pH 8.0, 11.1 μg/dL Pb): 14%
- Current (isocitrate dehydrogenase [4]; pH 8.0, 16.6 μg/dL Pb): 532 nA
- Inhibition (isocitrate dehydrogenase [4]; pH 8.0, 16.6 μg/dL Pb): 25%
- Current (isocitrate dehydrogenase [4]; pH 8.0, 22.1 μg/dL Pb): 439 nA
- Inhibition (isocitrate dehydrogenase [4]; pH 8.0, 22.1 μg/dL Pb): 38%
- Current (isocitrate dehydrogenase [4]; pH 8.0, 27.6 μg/dL Pb): 303 nA
- Inhibition (isocitrate dehydrogenase [4]; pH 8.0, 27.6 μg/dL Pb): 58%
- enzyme inhibition (isocitrate dehydrogenase [4]; pH 8, up to about 28 mg per deciliter lead (so in the source)): about 60%
- Current (isocitrate dehydrogenase [4]; pH 8.5, 5.5 μg/dL Pb): 636 nA
- Inhibition (isocitrate dehydrogenase [4]; pH 8.5, 5.5 μg/dL Pb): 18%
- Current (isocitrate dehydrogenase [4]; pH 8.5, 11.1 μg/dL Pb): 522 nA
- Inhibition (isocitrate dehydrogenase [4]; pH 8.5, 11.1 μg/dL Pb): 33%
- Current (isocitrate dehydrogenase [4]; pH 8.5, 16.6 μg/dL Pb): 406 nA
- Inhibition (isocitrate dehydrogenase [4]; pH 8.5, 16.6 μg/dL Pb): less than 50%
- Inhibition (isocitrate dehydrogenase [4]; pH 8.5, 16.6 μg/dL Pb, listed as Lead ion): 48%
- Current (isocitrate dehydrogenase [4]; pH 8.5, 22.1 μg/dL Pb): 241 nA
- Inhibition (isocitrate dehydrogenase [4]; pH 8.5, 22.1 μg/dL Pb): 69%
- Current (isocitrate dehydrogenase [4]; pH 8.5, 27.6 μg/dL Pb): 99 nA
- Inhibition (isocitrate dehydrogenase [4]; pH 8.5, 27.6 μg/dL Pb, listed as Lead ion): 87%
- Inhibition (isocitrate dehydrogenase [4]; pH 8.5, 27.6 μg/dL Pb, listed as lead): approximately 87%
- enzyme inhibition (isocitrate dehydrogenase [4]; pH 8.5, up to about 28 mg per deciliter lead (so in the source)): about 90%
- Current (isocitrate dehydrogenase [4]; pH 9.0, 5.5 μg/dL Pb): 4 nA
- Inhibition (isocitrate dehydrogenase [4]; pH 9.0, 5.5 μg/dL Pb): 99%
- Current (isocitrate dehydrogenase [4]; pH 9.0, 11.1 μg/dL Pb): 21 nA
- Inhibition (isocitrate dehydrogenase [4]; pH 9.0, 11.1 μg/dL Pb): 98%
- Inhibition (in words) (isocitrate dehydrogenase [4]; pH 9.0, between 0 and 5.5 mg per deciliter lead (so in the source)): complete inhibition
- Inhibition (in words) (isocitrate dehydrogenase [4]; pH 9.0, up to 5.5 μg/dL lead): completely inhibited
